# Experimental data as given in patent publication US20220241409A1, “WATER SOLUBLE ADJUVANT AND COMPOSITION CONTAINING SAME” (Sumitomo Dainippon Pharma Co., Ltd., priority 2019, published 2022).
# Tested on: MCA-A24/Kb-WT1 tumor cells
# Assay: In vivo suppression of tumor growth by vaccine (Test 15)
# Conditions: 27th day after transplantation, HLA-A*24:02 transgenic mouse, vaccination 7 days before and after transplantation; versus vehicle (group a); group b p<0.05, group c (100 ng Example 2 per body) p<0.01
# Method: The HLA-A*24:02 transgenic mouse (C57BL/6CrHLA-A24/Kb) used herein is a mouse expressing a chimeric HLA (HLA-A*2402/Kb) of a human MHC (HLA-A*24:02) and a mouse MHC (H-2Kb) (Int. J. Cancer 2002; 100: 565-570). The mouse can induce […] CTLs with a peptide which can bind to human HLA-A*24:02.
# A suspension of 3-methylcholanthrene in corn oil was administered to a HLA-A*24:02 transgenic mouse intradermally at the ventral region. From the tumor generated at the administration site, HLA-A*2402/Kb-expressing tumor cells were obtained. Cell lines established by stably expressing WT1 antigen peptide (SEQ ID No. 2) in the cells (herein, also referred to as MCA-A24/Kb-WT1 tumor cells) were suspended in Hanks' Balanced Salt Solution and intradermally transplanted to the ventral region of HLA-A*24:02 transgenic mouse (5×10^5 cells per mouse). The mice made to receive a vehicle (Group a), a vaccine (Group b), or a vaccine containing the compound prepared in Example 2 (Group c) were classified. Six mice per group were used. […] The tumor size was measured 27 days after the tumor transplantation and the tumor volume was calculated.
compound,measurement,value
"CCCCOc1nc(N)c2[nH]c(=O)n(Cc3ccc(CN(C)CCOCCOCCOCCOCCO)nc3)c2n1 [Example 2, 6-amino-2-butoxy-9-{[6-(16-hydroxy-2-methyl-5,8,11,14-tetraoxa-2-azahexadecan-1-yl)pyridin-3-yl]methyl}-7,9-dihydro-8H-purin-8-one-trifluoroacetate]",growth of tumor cells (average tumor volume),more potently suppressed
